From ChEMBL document CHEMBL1138846, “Synthesis of C2-C3'N-linked macrocyclic taxoids. Novel docetaxel analogues with high tubulin activity” (J Med Chem, 2004)
Calls of active or inactive are those of the source. No cut-off for these calls is given here.

Legend:
MCF7 = assay: Concentration required for inhibition of 50% human breast MCF 7 cell line proliferation after 72 hr of incubation; format: functional, cell-based; conditions: MCF7, 72 h
HCT-116 = assay: Concentration required for inhibition of 50% human colon HCT 116 cell line proliferation after 72 hr of incubation; format: functional, cell-based; conditions: HCT-116, 72 h
[1] = Ratio of inhibitory concentration of compound against microtubule disassembly to that of inhibitory concentration of paclitaxel; format: functional
KB = assay: Concentration required for inhibition of 50% human […] KB cell line proliferation after 72 hr of incubation; format: functional, cell-based
[2] = Ratio of inhibitory concentration of compound against microtubule disassembly to that of inhibitory concentration of paclitaxel; Inactive; format: functional
[3] = Concentration required to inhibit 50% of rate of microtubule disassembly; format: functional

Row | Compound | IC50 (MCF7) [nM] | IC50 (HCT-116) [nM] | Ratio [1] | IC50 (KB) [nM] | Ratio [2] | IC50 [3] [nM]
1 | C=CCCCCC(=O)N[C@@H](c1ccccc1)[C@@H](O)C(=O)O[C@H]1C[C@@]2(O)[C@@H](OC(=O)c3ccccc3CC=C)C3[C@](C)(C(=O)[C@H](O)C(=C1C)C2(C)C)[C@@H](O)C[C@H]1OC[C@@]31OC(C)=O (stereo partly drawn) | 9 | 10 | 1.2 | 3.2 |  | 
2 | CC(=O)O[C@@]12CO[C@@H]1C[C@H](O)[C@@]1(C)C(=O)[C@H](O)C3=C(C)[C@@H]4C[C@@](O)([C@@H](OC(=O)c5ccccc5C/C=C/CCCCC(=O)N[C@@H](c5ccccc5)[C@@H](O)C(=O)O4)C12)C3(C)C (stereo partly drawn) | 2100 | 2400 | 6 | 700 |  | 
3 | C=CCCCCC(=O)N[C@@H](c1ccccc1)[C@@H](O)C(=O)O[C@H]1C[C@@]2(O)[C@@H](OC(=O)c3ccc(CC=C)cc3)C3[C@](C)(C(=O)[C@H](O)C(=C1C)C2(C)C)[C@@H](O)C[C@H]1OC[C@@]31OC(C)=O (stereo partly drawn) |  |  |  | 40 | inactive | 
4 | CC(=O)O[C@H]1C(=O)[C@@]2(C)[C@H]([C@H](OC(=O)c3ccccc3)[C@]3(O)C[C@H](OC(=O)[C@H](O)[C@@H](NC(=O)c4ccccc4)c4ccccc4)C(C)=C1C3(C)C)[C@]1(OC(C)=O)CO[C@@H]1C[C@@H]2O [PACLITAXEL] |  |  |  |  |  | 1000
5 | CC(=O)O[C@@]12CO[C@@H]1C[C@H](O)[C@@]1(C)C(=O)[C@H](O)C3=C(C)[C@@H]4C[C@@](O)([C@@H](OC(=O)c5cccc(c5)C/C=C\CCCCC(=O)N[C@@H](c5ccccc5)[C@@H](O)C(=O)O4)C12)C3(C)C (stereo partly drawn) | > 10000 | 8000 | 1.4 | 200 |  | 
6 | CC(=O)O[C@@]12CO[C@@H]1C[C@H](O)[C@@]1(C)C(=O)[C@H](O)C3=C(C)[C@@H]4C[C@@](O)([C@@H](OC(=O)CCCC/C=C\CCCCC(=O)N[C@@H](c5ccccc5)[C@@H](O)C(=O)O4)C12)C3(C)C (stereo partly drawn) | > 10000 | > 10000 | 7.3 | 8000 |  | 
7 | CC(=O)O[C@@]12CO[C@@H]1C[C@H](O)[C@@]1(C)C(=O)[C@H](O)C3=C(C)[C@@H]4C[C@@](O)([C@@H](OC(=O)c5ccc(cc5)C/C=C\CCCCC(=O)N[C@@H](c5ccccc5)[C@@H](O)C(=O)O4)C12)C3(C)C (stereo partly drawn) |  |  |  | 280 | inactive | 
8 | CC(=O)O[C@@]12CO[C@@H]1C[C@H](O)[C@@]1(C)C(=O)[C@H](O)C3=C(C)[C@@H](OC(=O)[C@H](O)[C@@H](NC(=O)OC(C)(C)C)c4ccccc4)C[C@@](O)([C@@H](OC(=O)c4ccccc4)[C@H]21)C3(C)C [DOCETAXEL] | 1 | 2.2 | 0.5 | 0.3 |  | 
9 | CC(=O)O[C@@]12CO[C@@H]1C[C@H](O)[C@@]1(C)C(=O)[C@H](O)C3=C(C)[C@@H]4C[C@@](O)([C@@H](OC(=O)c5ccc(cc5)C/C=C/CCCC(=O)N[C@@H](c5ccccc5)[C@@H](O)C(=O)O4)C12)C3(C)C (stereo partly drawn) |  |  |  | 1600 | inactive | 
10 | C=CCCCCC(=O)N[C@@H](c1ccccc1)[C@@H](O)C(=O)O[C@H]1C[C@@]2(O)[C@@H](OC(=O)c3cccc(CC=C)c3)C3[C@](C)(C(=O)[C@H](O)C(=C1C)C2(C)C)[C@@H](O)C[C@H]1OC[C@@]31OC(C)=O (stereo partly drawn) |  |  | 1 | 10 |  | 
11 | CC(=O)O[C@@]12CO[C@@H]1C[C@H](O)[C@@]1(C)C(=O)[C@H](O)C3=C(C)[C@@H]4C[C@@](O)([C@@H](OC(=O)c5cccc(c5)C/C=C/CCCCC(=O)N[C@@H](c5ccccc5)[C@@H](O)C(=O)O4)C12)C3(C)C (stereo partly drawn) | 350 | 700 | 1 | 70 |  | 
